Assay results from patent publication US20160017326A1, “MICRORNAS AS FUNCTIONAL MEDIATORS AND BIOMARKERS OF BONE METASTASIS” (THE TRUSTEES OF PRINCETON UNIVERSITY, priority 2013, published 2016).

Legend:
RAW264.7 cells = assay: RANKL-induced osteoclast differentiation, TRAP staining; format: cell-based, murine; conditions: all models tested
Description: HeLa and RAW264.7 cells (American Type Culture Collection, ATCC) were maintained in Dulbecco's modified Eagle's medium (DMEM) supplemented with 10% fetal bovine serum (FBS), penicillin/streptomycin (GIBCO), and fungizone. MOCP-5 cells were maintained in αMEM with 10% FBS and antibiotics. MDA-MB-231 parental cells (ATCC) and all sublines (SCP2, SCP4, SCP6, SCP28, SCP46) were maintained in DMEM with 10% FBS and antibiotics. The murine 4T1 and 4T1.2 cells, and human TSU-Pr1, and TSU-PR1-B2 cells were similarly maintained in DMEM with 10% FBS and antibiotics. For osteoclast differentiation assays, cells were treated with indicated concentration of RANKL in DMEM plus 10% FBS, with media changes performed every 2 days. Primary osteoclasts were isolated from bone marrow cells flushed from the tibia of 6-week-old wild type Balb/c mice and filtered through a […] cell-strainer before overnight culture in aMEM with 10% FBS. The following day 1×10^6 non-adherent cells were plated in 6-well plates supplemented with 50 ng/mL M-CSF for 2 days, followed by 50 ng/mL RANKL for an additional 4-5 days, with media changes every 2 days. Human osteoclasts were obtained from Lonza (2T-110) and differentiated by treatment with 33 ng/ml M-CSF and 66 ng/ml RANKL. CM was collected from the indicated sub-confluent tumor cells grown in DMEM with […] for 24 hours. The CM was passed through a 0.2 μm filter before addition to 1×10^5 RAW264.7 or MOCP-5 cells in a 6-well plate. The media was replaced with fresh CM daily. Cells were TRAP stained on day 6 using a leukocyte acid phosphatase kit (Sigma) and TRAP^+-multineucliated cells were quantified as mature osteoclasts. […]

Mitf 3'UTR = assay: 3'UTR luciferase reporter assay, Mitf; format: cell-based, mouse; conditions: co-transfection in HeLa, relative to negative control miRNA
Protocol: For NFκB reporter assays the pGL4.32 [luc2P/NF-κB-RE/Hygro] vector (Promega) was co-transfected with a Renilla-luciferase plasmid into cells. After 24 hours, cells were treated with 50 ng/ml RANKL, 50 ng/ml sICAM1, or 10 ng/ml TNFα for analysis at indicated timepoints. Wildtype and mutant 3′UTRs were PCR amplified from mouse genomic DNA. The 3′UTRs were cloned into the pMIR-REPORT vector (AMBION®) downstream of firefly luciferase. Mutations in miRNA target sites were generated using the QuikChange Multi site-directed mutagenesis kit (Stratagene). 5×10^4 HeLa cells were plated in 24-well plates 24 hours prior to transfection. 200 ng of reporter plasmid was co-transfected with the renilla-luciferase control plasmid and 10 pM pre-miRNA precursor or precursor control (AMBION®) using Lipofectamine 2000 (Invitrogen). Cells were lysed 24 hours after transfection and assayed for luciferase activity using the Glomax 96 Luminometer (Promega). Primer sequences for cloning or mutagenesis are listed below:
Reporter constructs were co-transfected with pre-miRs, as well as a Renilla luciferase plasmid for normalization.

[1] = test system: SCP28 breast cancer cells; assay: Experimental bone metastasis: intracardiac SCP28 cells in nude mice, BLI, X-ray, histology; format: in vivo, mouse; conditions: for osteolytic bone lesions (X-ray): hindlimbs, pre-miRNA treated; for hind-limb tumor burden / metastatic progression by BLI: pre-miRNA 10 μg/mouse i.v. before and once per week after SCP28 inoculation; for osteolytic bone metastasis: summary statement; for TRAP+ osteoclast number: histology, tumor-bone interface
Description: Hindlimb bones were excised from mice at the end point of each experiment, immediately following X-ray and BLI. Hind limb bones were fixed in 10% neutral-buffered formalin, washed and decalcified in a solution of 10% EDTA for 2 weeks. One limb from each mouse was stored in 70% ethanol for μCT analysis and Von Kossa staining, while the other limb was embedded in paraffin for hematoxylin and eosin (H&E), tartrate-resistant acid phosphatase (TRAP), or immunohistochemical staining. Non-decalcified sections were embedded in resin using the Osteo-bed Bone Embedding Kit (Sigma Aldrich, EM0200) before sectioning, followed by Von Kossa staining. Briefly, sections were rehydrated to H2O, followed by submersion in 1% silver nitrate and exposure to UV light for 5 minutes. Sections were then incubated in 2.5% Sodium Thiosulphate, followed by counterstaining with Nuclear Fast Red and dehydration through Xylene. Histomorphometric analysis was performed on H&E stained bone metastasis sections using the Zeiss Axiovert 200 microscope and the AxioVision software version 4.6.3 SP1. For quantitative analysis of lesion area, a 5× objective was used to focus on the tumor region of interest and images were acquired using an AxioCamICc3 camera set to an exposure of 50 ms. Lesions that were larger than the field of view were quantified by acquiring multiple images to encompass the entire lesion and combined in Adobe Photoshop CS5. Lesion area was quantified by outlining the region(s) of interest and quantifying lesion area. Osteoclast number was assessed as multinucleated TRAP^+ cells along the tumor-bone interface and reported as number/mm of interface as previously reported (Sethi et al., 2011). Immunohistochemical analysis was performed with heat-induced antigen retrieval and an osteocalcin antibody (ABcam, AB93876). A biotinylated secondary antibody was used with Vectastain ABC Kit (Vector Laboratories) and DAB detection kit (Zymed) to reveal the positively stained cells; nuclei were counterstained with hematoxylin
Anesthetized mice were placed on singlewrapped films (X-OMAT AR, Eastman Kodak) and exposed to X-ray radiography at 35 kV for 15 s using a MX-20 Faxitron instrument. Films were developed using a Konica SRX-101A processor. Changes in bone remodeling and osteolytic lesions (radiolucent lesions) in the hindlimbs of mice were identified and quantified using the ImageJ software (National Institutes of Health)
All procedures involving mice and experimental protocols were approved by Institutional Animal Care and Use Committee (IACUC) of Princeton University. For bone metastasis studies, 1×10^5 tumor cells were injected into the left cardiac ventricle of anesthetized female athymic Ncr-nu/nu. MiRNA precursors (10 μg/mouse in 100 μl PBS, Applied Biosystems) and Zometa (100 μg/kg) were injected intravenously. Development of metastases was monitored by measuring photon flux of BLI signals in the hindlimbs of mice after retro-orbital injection of 75 mg/kg D-Luciferin and image acquisition using the Xenogen IVIS 200 Imaging System. Data were normalized to the signal on day 0. X-ray examination was performed as previously described (Kang et al., 2003).
After further validating the ability of highly metastatic SCP28 to induce osteoclastogenesis in MOCP5 cells, SCP28 were used for analyzing the effect of miRNAs on bone metastasis development in mice. FIG. 7E illustrates representative images of MOCP-5 cells treated with MDA-MB-231 and SCP28 CMs. Scale bar represents 200 μm. FIGS. 7F and 7G illustrate quantification of osteoclast number and nuclei per osteoclast after MOCP-5 cells were treated with indicated CM as in FIG. 7C. Results were statistically significant with p<0.001 (***) as assessed by Student's t test. Nude mice were systemically treated with control or experimental pre-miRNAs immediately before, and once per week subsequently, after inoculation with SCP28 cells via intracardiac injection. […]

Substance | osteoclast maturation and activity (RAW264.7 cells) | luciferase reporter activity, Mitf 3'UTR (Mitf 3'UTR) | osteolytic bone lesions (X-ray) [1] | hind-limb tumor burden / metastatic progression by BLI [1] | osteolytic bone metastasis [1] | reduction of Mitf expression (3'UTR reporter) (Mitf 3'UTR) | TRAP+ osteoclast number [1]
miR-133a: miRNA, SEQ ID NO: 61; delivered as pre-miRNA precursor; targets Mitf and Mmp14 (UUUGGUCCCCUUCAACCAGCUA; delivered as pre-miRNA precursor, chemistry not given here; listed as Homo sapiens) | strongly inhibit | repress expression of Mitf | significant bone degradation | no effect | no measurable effect | – | –
miR-141: miRNA, SEQ ID NO: 69; delivered as pre-miRNA precursor; targets Mitf and Calcr (UAACACUGUCUGGUAACGAUGU; delivered as pre-miRNA precursor, chemistry not given here; listed as Homo sapiens) | strongly inhibit | repress expression of Mitf | decreased bone lesions | significant decrease in metastatic burden | capable of inhibiting | ~50% | significant decrease
miR-190: miRNA, SEQ ID NO: 64; delivered as pre-miRNA precursor; targets Calcr (UGAUAUGUUUGAUAUAUUAGGU; delivered as pre-miRNA precursor, chemistry not given here; listed as Homo sapiens) | Partial inhibition | – | significant bone degradation | no effect | no measurable effect | – | significant decrease
miR-219: miRNA, SEQ ID NO: 66; delivered as pre-miRNA precursor; targets Mitf and Traf6 (UGAUUGUCCAAACGCAAUUCU; delivered as pre-miRNA precursor, chemistry not given here; listed as Homo sapiens) | strongly inhibit | repress expression of Mitf | decreased bone lesions | significant decrease in metastatic burden | capable of inhibiting | ~20% | significant decrease
